Assays:
[1] = system: antibodies in sera from SARS patients (sera 1a, 1b, 2, 6, 37, 62, London, SARS-yellow, SARS-green); type: binding, human; design: Binding of serum 6 to linear peptides of protein X1 of SARS-CoV Urbani / Binding of serum 37 to linear peptides of protein X1 of SARS-CoV Urbani / Binding of serum 6 to looped/cyclic peptide (PEPSCAN-ELISA) / Binding of serum 37 to looped/cyclic peptide (PEPSCAN-ELISA) / Binding of serum 37 to looped/cyclic peptides of protein X1 of SARS-CoV Urbani / Binding of serum 6 to linear peptides of protein X2 / Binding of serum 37 to linear peptides of protein X2 / Binding of serum 37 to looped/cyclic peptides of protein X2 of SARS-CoV Urbani / Binding of serum 6 to linear peptides of protein M of SARS-CoV Urbani / Binding of serum 37 to linear peptides of protein M of SARS-CoV Urbani / Binding of serum 6 to looped/cyclic peptides of protein M of SARS-CoV Urbani / Binding of serum 37 to looped/cyclic peptides of protein M of SARS-CoV Urbani / Binding of serum 6 to linear peptides of protein X3 of SARS-CoV Urbani / Binding of serum 37 to linear peptides of protein X3 of SARS-CoV Urbani / Binding of serum 37 to looped/cyclic peptides of protein X3 of SARS-CoV Urbani / Binding of serum 6 to linear peptides of protein X4 of SARS-CoV Urbani / Binding of serum 37 to linear peptides of protein X4 of SARS-CoV Urbani / Binding of serum 37 to looped/cyclic peptides of protein X4 of SARS-CoV Urbani / Binding of serum 6 to linear peptides of protein X5 of SARS-CoV Urbani / Binding of serum 37 to linear peptides of protein X5 of SARS-CoV Urbani / Binding of serum 37 to looped/cyclic peptides of protein X5 of SARS-CoV Urbani / Binding of serum 6 to linear peptides of protein N of SARS-CoV Urbani / Binding of serum 37 to linear peptides of protein N of SARS-CoV Urbani / Binding of serum 6 to linear peptide (PEPSCAN-ELISA) / Binding of serum 1a to looped/cyclic peptides of protein N of SARS-CoV Urbani / Binding of serum 1b to looped/cyclic peptides of protein N of SARS-CoV Urbani / Binding of serum 2 to looped/cyclic peptides of protein N of SARS-CoV Urbani / Binding of serum 6 to looped/cyclic peptides of protein N of SARS-CoV Urbani / Binding of serum 37 to looped/cyclic peptides of protein N of SARS-CoV Urbani / Binding of serum 62 to looped/cyclic peptides of protein N of SARS-CoV Urbani / Binding of serum London to looped/cyclic peptides of protein N of SARS-CoV Urbani / Binding of serum SARS-green to looped/cyclic peptides of protein N of SARS-CoV Urbani: unit not given here
[2] = system: control sera (pooled serum of ten healthy LUMC hospital workers; commercial negative donor pooled serum from the Dutch bloodbank); type: binding, human; design: Binding of Control serum LUMC to linear peptides / Binding of Control serum Blood-bank to linear peptides / Binding of Control serum LUMC to looped peptides / Binding of Control Serum Blood-Bank to Looped peptides / Binding of Control serum LUMC to linear peptides of the protein M of SARS-CoV Urbani / Binding of Control serum Blood-bank to linear peptides of the protein M of SARS-CoV Urbani / Binding of Control serum LUMC to looped peptides of the protein M of SARS-CoV Urbani / Binding of Control Serum Blood-Bank to Looped peptides of the protein M of SARS-CoV Urbani: unit not given here
[3] = system: rabbit serum obtained by immunizing a rabbit with the SARS-CoV strain Frankfurt 1; type: binding; design: Binding of a rabbit serum to linear peptides / Binding of a rabbit serum to looped peptides / Rabbit serum linear peptides / Rabbit serum looped peptides / Binding of a rabbit serum to linear peptides of protein N of SARS-CoV Urbani (Rabbit serum linear peptides) / Binding of a rabbit serum to looped/cyclic peptides of protein N of SARS-CoV Urbani (Rabbit serum looped peptides): unit not given here

YIIKLVFLWLLWPVT
Binding of serum 1a to linear peptides of protein M of SARS-CoV Urbani [1]: 0.8 | Binding of serum 1a to looped/cyclic peptides of protein M of SARS-CoV Urbani [1]: 0.8 | Binding of serum 1b to linear peptides of protein M of SARS-CoV Urbani [1]: 0.6 | Binding of serum 1b to looped/cyclic peptides of protein M of SARS-CoV Urbani [1]: 0.8 | Binding of serum 2 to linear peptides of protein M of SARS-CoV Urbani [1]: 0.9 | Binding of serum 2 to looped/cyclic peptides of protein M of SARS-CoV Urbani [1]: 0.6 | Binding of serum 6 to linear peptides of protein M of SARS-CoV Urbani [1]: 0.4 | Binding of serum 6 to looped/cyclic peptides of protein M of SARS-CoV Urbani [1]: 0.8 | Binding of serum 37 to linear peptides of protein M of SARS-CoV Urbani [1]: 0.7 | Binding of serum 37 to looped/cyclic peptides of protein M of SARS-CoV Urbani [1]: 0.7 | Binding of serum 62 to linear peptides of protein M of SARS-CoV Urbani [1]: 0.8 | Binding of serum 62 to looped/cyclic peptides of protein M of SARS-CoV Urbani [1]: 0.7 | Binding of serum London to linear peptides of protein M of SARS-CoV Urbani [1]: 0.3 | Binding of serum London to looped/cyclic peptides of protein M of SARS-CoV Urbani [1]: 0.3 | Binding of serum SARS-green to linear peptides of protein M of SARS-CoV Urbani [1]: 0.4 | Binding of serum SARS-green to looped/cyclic peptides of protein M of SARS-CoV Urbani [1]: 0.4 | Binding of serum SARS-yellow to linear peptides of protein M of SARS-CoV Urbani [1]: 0.1 | Binding of serum SARS-yellow to looped/cyclic peptides of protein M of SARS-CoV Urbani [1]: 0.5 | Binding of Control Serum Blood-Bank to Looped peptides of the protein M of SARS-CoV Urbani [2]: 0.8 | Binding of Control serum Blood-bank to linear peptides of the protein M of SARS-CoV Urbani [2]: 0.8 | Binding of Control serum LUMC to linear peptides of the protein M of SARS-CoV Urbani [2]: 0.5 | Binding of Control serum LUMC to looped peptides of the protein M of SARS-CoV Urbani [2]: 0.8 | Rabbit serum linear peptides [3]: 0.4 | Rabbit serum looped peptides [3]: 0.2

LDVIISSIVRQLFKP
Binding of serum 1a to linear peptides of protein X3 of SARS-CoV Urbani [1]: 0.8 | Binding of serum 1a to looped/cyclic peptides of protein X3 of SARS-CoV Urbani [1]: 0.6 | Binding of serum 1b to linear peptides of protein X3 of SARS-CoV Urbani [1]: 0.3 | Binding of serum 1b to looped/cyclic peptides of protein X3 of SARS-CoV Urbani [1]: 0.3 | Binding of serum 2 to linear peptides of protein X3 of SARS-CoV Urbani [1]: 0.9 | Binding of serum 2 to looped/cyclic peptides of protein X3 of SARS-CoV Urbani [1]: 0.5 | Binding of serum 6 to linear peptides of protein X3 of SARS-CoV Urbani [1]: 0.3 | Binding of serum 6 to looped/cyclic peptides of protein X3 of SARS-CoV Urbani [1]: 0.4 | Binding of serum 37 to linear peptides of protein X3 of SARS-CoV Urbani [1]: 0.7 | Binding of serum 37 to looped/cyclic peptides of protein X3 of SARS-CoV Urbani [1]: 0.5 | Binding of serum 62 to linear peptides of protein X3 of SARS-CoV Urbani [1]: 0.6 | Binding of serum 62 to looped/cyclic peptides of protein X3 of SARS-CoV Urbani [1]: 0.5 | Binding of serum London to linear peptides of protein X3 of SARS-CoV Urbani [1]: 0.5 | Binding of serum London to looped/cyclic peptides of protein X3 of SARS-CoV Urbani [1]: 0.2 | Binding of serum SARS-green to linear peptides of protein X3 of SARS-CoV Urbani [1]: 0.4 | Binding of serum SARS-green to looped/cyclic peptides of protein X3 of SARS-CoV Urbani [1]: 0.2 | Binding of serum SARS-yellow to linear peptides of protein X3 of SARS-CoV Urbani [1]: 0.1 | Binding of serum SARS-yellow to looped/cyclic peptides of protein X3 of SARS-CoV Urbani [1]: 0.3 | Binding of Control Serum Blood-Bank to Looped peptides of the protein X3 of SARS-CoV Urbani [2]: 0.7 | Binding of Control serum Blood-bank to linear peptides of the protein X3 of SARS-CoV Urbani [2]: 0.6 | Binding of Control serum LUMC to linear peptides of the protein X3 of SARS-CoV Urbani [2]: 0.4 | Binding of Control serum LUMC to looped peptides of the protein X3 of SARS-CoV Urbani [2]: 0.8 | Rabbit serum linear peptides [3]: 0.2 | Rabbit serum looped peptides [3]: 0.0

QFMMSRRRLLACLCK
Binding of serum 1a to linear peptides of protein X2 [1]: 0.7 | Binding of serum 1a to looped/cyclic peptides of protein X2 of SARS-CoV Urbani [1]: 0.4 | Binding of serum 1b to linear peptides of protein X2 [1]: 0.5 | Binding of serum 1b to looped/cyclic peptides of protein X2 of SARS-CoV Urbani [1]: 0.5 | Binding of serum 2 to linear peptides of protein X2 [1]: 0.5 | Binding of serum 2 to looped/cyclic peptides of protein X2 of SARS-CoV Urbani [1]: 0.5 | Binding of serum 6 to linear peptides of protein X2 [1]: 0.6 | Binding of serum 6 to looped/cyclic peptides of protein X2 of SARS-CoV Urbani [1]: 0.1 | Binding of serum 37 to linear peptides of protein X2 [1]: 0.5 | Binding of serum 37 to looped/cyclic peptides of protein X2 of SARS-CoV Urbani [1]: 0.4 | Binding of serum 62 to linear peptides of protein X2 [1]: 0.6 | Binding of serum 62 to looped/cyclic peptides of protein X2 of SARS-CoV Urbani [1]: 0.5 | Binding of serum London to linear peptides of protein X2 [1]: 0.6 | Binding of serum London to looped/cyclic peptides of protein X2 of SARS-CoV Urbani [1]: 0.2 | Binding of serum SARS-green to linear peptides of protein X2 [1]: 0.4 | Binding of serum SARS-green to looped/cyclic peptides of protein X2 of SARS-CoV Urbani [1]: 0.4 | Binding of serum SARS-yellow to linear peptides of protein X2 [1]: 0.4 | Binding of serum SARS-yellow to looped/cyclic peptides of protein X2 of SARS-CoV Urbani [1]: 0.3 | Binding of Control Serum Blood-Bank to Looped peptides [2]: 0.3 | Binding of Control serum Blood-bank to linear peptides [2]: 0.7 | Binding of Control serum LUMC to linear peptides [2]: 0.5 | Binding of Control serum LUMC to looped peptides [2]: 0.4 | Binding of a rabbit serum to linear peptides [3]: 0.5 | Binding of a rabbit serum to looped peptides [3]: 1.9

Source: patent US20070128217A1 (priority 2003, published 2007)
